Legend:
L5178Y [1] = assay: Inhibition of L5178Y cell growth at 10 ug/mL.
[2] = biological target: T1, Queuine tRNA-ribosyltransferase catalytic subunit 1 (Rattus norvegicus) (UniProt Q4QR99); assay: Ability to act as substrate of rat liver tRNA-Guanine Transglycosylase.
T1 sequence (whole entry): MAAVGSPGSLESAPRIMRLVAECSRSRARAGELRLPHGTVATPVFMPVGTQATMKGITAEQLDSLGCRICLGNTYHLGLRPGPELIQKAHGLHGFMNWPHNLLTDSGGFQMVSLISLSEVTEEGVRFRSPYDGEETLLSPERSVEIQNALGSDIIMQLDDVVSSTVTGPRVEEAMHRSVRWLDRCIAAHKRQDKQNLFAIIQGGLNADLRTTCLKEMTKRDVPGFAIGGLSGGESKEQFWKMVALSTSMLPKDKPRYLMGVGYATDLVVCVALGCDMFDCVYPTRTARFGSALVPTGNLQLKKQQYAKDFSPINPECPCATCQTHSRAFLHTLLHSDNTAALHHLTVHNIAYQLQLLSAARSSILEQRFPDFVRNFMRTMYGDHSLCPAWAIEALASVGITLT

L5178Y [3] = assay: Inhibition of L5178Y cell growth at 100 ug/mL.
L5178Y [4] = assay: Compound was tested for inhibition of growth of L5178Y cells at concentration of 1 ug/mL; format: functional; conditions: Mus musculus

Row | Incorporation [2] | Compound | Inhibition (L5178Y [1]) | Inhibition (L5178Y [3]) | inhibition at 1 µg/mL (L5178Y [4])
1 | 36% | CC(C)C(=O)NCc1c[nH]c2nc(N)nc(O)c12 | 16% | 87% | –
2 | 88% | Nc1nc(O)c2c(CNCC(O)CO)c[nH]c2n1 (stereo unspecified) | <10% | 31% | –
3 | 50% | NCc1c[nH]c2nc(N)nc(S)c12 | 36% | 77% | < 10%
4 | 100% | CC1(C)OC2C(NCc3c[nH]c4nc(N)nc(O)c34)C=C[C@H]2O1 (stereo partly specified) | <10% | 21% | –
5 | 98% | Nc1nc(O)c2c(CNCCOCCO)c[nH]c2n1 | <10% | 9% | –
6 | 55% | CC1(C)OC2C(NCc3c[nH]c4nc(N)nc(O)c34)C=C[C@@H]2O1 (stereo partly specified) | <10% | 34% | –
7 | 123% | CC1(C)OC2C(NCc3c[nH]c4nc(N)nc(S)c34)C=C[C@@H]2O1 (stereo partly specified) | 87% | 94% | 46%
8 | 100% | Nc1nc(O)c2c(CNC3C=C[C@@H](O)[C@H]3O)c[nH]c2n1 (stereo partly specified) | <10% | 20% | –
9 | 120% | Nc1nc(O)c2c(CNC3C=C[C@@H](O)C3O)c[nH]c2n1 (stereo partly specified) | <10% | 23% | –
10 | 98% | Nc1nc(O)c2c(CNCc3ccc(I)cc3)c[nH]c2n1 | 19% | 77% | –
11 | 48% | N/C(=N/Cc1c[nH]c2nc(N)nc(O)c12)c1cc(I)c(O)c(I)c1 | 31% | 89% | –
12 | 33% | Nc1nc(O)c2c(CNc3cccc(O)c3)c[nH]c2n1 | 65% | 79% | 12%
13 | 70% | Nc1nc(O)c2c(CNC3C=C[C@H](O)[C@@H]3O)c[nH]c2n1 (stereo partly specified) | <10% | 53% | –
14 | 78% | Nc1nc(S)c2c(CNC3C=C[C@H](O)C3O)c[nH]c2n1 (stereo partly specified) | 54% | 88% | 12%
15 | 76% | Nc1nc(O)c2c(CNc3ccccc3O)c[nH]c2n1 | 53% | 90% | 25%
16 | 94% | CCCNCc1c[nH]c2nc(N)nc(O)c12 | <10% | 43% | –
17 | 48% | Nc1nc(O)c2c(n1)N=CC2CNCC(=O)O (stereo unspecified) | <10% | 20% | –
18 | 80% | Nc1nc(O)c2c(CNC3CCCC3)c[nH]c2n1 | 17% | 74% | –
19 | 0% | Nc1nc(O)c2c(CNC(=O)CI)c[nH]c2n1 | 87% | 89% | 49%
20 | 65% | Nc1nc(O)c2c(CN3CCCCC3)c[nH]c2n1 | <10% | 36% | –

— ChEMBL document CHEMBL1123438, “Queuine analogues. Their synthesis and inhibition of growth of mouse L5178Y cells in vitro” (1986)
